Experimental data as given in patent US7829665B2 (priority 2005, dated 2010).

What follows are molecules tested against T1, full-length NS3/NS4A-2 (HCV NS3 protease) (Hepatitis C virus genotype 1a, UniProt P27958) (assay: NS3-NS4 protease assay / NS3 inhibition assay (RETS1 substrate, fluorescence kinetic read)). Conditions: not given.
T1 construct: Recombinant E. coli or Baculovirus full-length NS3 was diluted to 3.33 μM with assay buffer; made in house; host or cells: E. coli or baculovirus (BV) expression system
Format: biochemical
Procedure, shortened: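 Ki values come from IC50 fits corrected via Ki=IC50/(1+[S]/Km), with Km 2.03 μM for E. coli and 1.74 μM for baculovirus full-length NS3. Enzyme (2 or 3 nM NS3, respectively, complexed with NS4A-2) sat with compound, top concentration 50 microM, for 10 min at room temperature. Cleavage of RETS1 (8 μM working solution) was then followed by fluorescence (335/495 nm) over 30 min.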

T1 sequence (P27958 1027-1657): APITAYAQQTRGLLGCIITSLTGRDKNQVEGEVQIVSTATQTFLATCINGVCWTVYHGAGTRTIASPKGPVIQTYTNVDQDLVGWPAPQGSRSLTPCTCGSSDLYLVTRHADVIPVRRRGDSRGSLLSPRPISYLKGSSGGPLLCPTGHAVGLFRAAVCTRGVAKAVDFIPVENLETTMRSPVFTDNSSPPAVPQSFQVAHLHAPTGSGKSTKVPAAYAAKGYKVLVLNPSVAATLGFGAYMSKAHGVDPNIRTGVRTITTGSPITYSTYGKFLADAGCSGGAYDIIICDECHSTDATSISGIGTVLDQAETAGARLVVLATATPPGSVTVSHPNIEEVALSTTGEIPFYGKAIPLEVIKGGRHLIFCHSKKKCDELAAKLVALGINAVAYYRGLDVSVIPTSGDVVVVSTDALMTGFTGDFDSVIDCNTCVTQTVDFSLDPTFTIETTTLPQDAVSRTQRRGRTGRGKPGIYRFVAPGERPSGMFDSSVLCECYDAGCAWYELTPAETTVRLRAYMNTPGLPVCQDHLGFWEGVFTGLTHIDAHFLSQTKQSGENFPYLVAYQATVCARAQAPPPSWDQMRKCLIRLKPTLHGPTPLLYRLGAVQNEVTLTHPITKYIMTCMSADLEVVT

CC(C)(C)OC(=O)N[C@H]1COCCC/C=C\[C@@H]2C[C@@]2(C(=O)NS(=O)(=O)C2CC2)NC(=O)[C@@H]2C[C@@H](OC(=O)N3Cc4cccc(Cl)c4C3)CN2C1=O [Compound 1025] showed an IC50 of less than 0.1 µM.

Same assay, conditions: Table 22; read-out: NS3-NS4 IC50

CC(C)(C)CNC(=O)[C@@]12C[C@H]1/C=C\CCCCC[C@H](NC(=O)OC(C)(C)C)C(=O)N1CCC[C@H]1C(=O)N2 [Compound 2315] and CC(C)CNC(=O)[C@@]12C[C@H]1/C=C\CCCCC[C@H](NC(=O)OC(C)(C)C)C(=O)N1CCC[C@H]1C(=O)N2 [Compound 2314] cannot be ordered by IC50: less than 1 µM for the first, less than 1 µM for the second.

CCCNC(=O)[C@@]12C[C@H]1/C=C\CCCCC[C@H](NC(=O)OC(C)(C)C)C(=O)N1CCC[C@H]1C(=O)N2 [Compound 2319] and Cc1ccc(NC(=O)[C@@]23C[C@H]2/C=C\CCCCC[C@H](NC(=O)OC(C)(C)C)C(=O)N2CCC[C@H]2C(=O)N3)cc1 [Compound 2316] cannot be ordered by IC50: less than 0.1 µM for the first, less than 1 µM for the second.

Molecule COc1ccccc1NC(=O)[C@@]12C[C@H]1/C=C\CCCCC[C@H](NC(=O)OC(C)(C)C)C(=O)N1CCC[C@H]1C(=O)N2 [Compound 2313] has an IC50 of less than 1 µM.

Same assay, conditions: Table 24; read-out: NS3-NS4 IC50

CC(C)(C)OC(=O)N[C@H]1CCCCC/C=C\[C@@H]2C[C@@]2(C(=O)NCC2CC2)NC(=O)[C@@H]2C[C@@H](OC(=O)N3Cc4ccccc4C3)CN2C1=O [Compound 2501, (1S,4R,6S,14S,18R)-1,3-Dihydro-isoindole-2-carbonyloxylic acid 14-tert-butoxycarbonylamino-4-cyclopropylmethanaminocarbonyl-2,15-dioxo-3,16-diaza-tricyclo[14.3.0.0^4,6]nonadec-7-ene-18-yl ester] showed an IC50 greater than 10 µM.

Same assay, conditions: Table 25; read-out: NS3-NS4 IC50

CC(C)(C)OC(=O)N[C@H]1CCCCC/C=C\[C@@H]2C[C@@]2(C(=O)N[S@@+]([O-])C(C)(C)C)NC(=O)[C@@H]2C[C@@H](OC(=O)N3Cc4ccccc4C3)CN2C1=O [Compound 2601, (1S,4R,6S,14S,18R)-1,3-Dihydro-isoindole-2-carbonyloxylic acid 14-tert-butoxycarbonylamino-4-((S)-2-methylpropane-2-sulfinyl)aminocarbonyl-2,15-dioxo-3,16-diaza-tricyclo[14.3.0.0^4,6]nonadec-7-ene-18-yl ester] and CC(C)(C)OC(=O)N[C@H]1CCCCC/C=C\[C@@H]2C[C@@]2(C(=O)N[S@+]([O-])C(C)(C)C)NC(=O)[C@@H]2C[C@@H](OC(=O)N3Cc4ccccc4C3)CN2C1=O [Compound 2604] cannot be ordered by IC50: greater than 10 µM for the first, greater than 10 µM for the second.

Same assay, conditions: recombinant E. coli or Baculovirus full-length NS3 with NS4A-2; read-out: NS3-NS4 IC50

CC(C)(C)OC(=O)N[C@H]1CCCCC/C=C\[C@@H]2C[C@@]2(C(=O)NS(=O)(=O)c2cc(Cl)ccc2F)NC(=O)[C@@H]2CCCN2C1=O [Compound 2150] and CC(C)(C)OC(=O)N[C@H]1CCCCC/C=C\[C@@H]2C[C@@]2(C(=O)NS(=O)(=O)c2cccc(Cl)c2F)NC(=O)[C@@H]2CCCN2C1=O [Compound 2151] cannot be ordered by IC50: less than 10 µM for the first, less than 1 µM for the second.

CC(C)(C)OC(=O)N[C@H]1CCCCC/C=C\[C@@H]2C[C@@]2(C(=O)NS(=O)(=O)c2ccc(Br)cc2)NC(=O)[C@@H]2CCCN2C1=O [Compound 2131] and CC(C)(C)OC(=O)N[C@H]1CCCCC/C=C\[C@@H]2C[C@@]2(C(=O)NS(=O)(=O)c2ccc(C#N)cc2)NC(=O)[C@@H]2CCCN2C1=O [Compound 2134] cannot be ordered by IC50: less than 10 µM for the first, less than 1 µM for the second.

Compared with CCOC(=O)[C@@]12C[C@H]1/C=C\CCCCC[C@H](NC(=O)OC(C)(C)C)C(=O)N1C[C@H](OC(=O)N3Cc4ccc(OCCN5CCOCC5)cc4C3)C[C@H]1C(=O)N2 [Compound 124], CN(C)CCNC(=O)[C@@]12C[C@H]1/C=C\CCCCC[C@H](NC(=O)OC(C)(C)C)C(=O)N1C[C@H](OC(=O)N3Cc4cccc(F)c4C3)C[C@H]1C(=O)N2 [Compound 608] is higher in IC50: less than 10 µM for the first, greater than 10 µM for the second.

C=CCN(C)S(=O)(=O)NC(=O)[C@@]12C[C@H]1/C=C\CCCCC[C@H](NC(=O)OC(C)(C)C)C(=O)N1CCC[C@H]1C(=O)N2 [Compound 412] and CCCS(=O)(=O)NC(=O)C12CC1C=CCCCCCCCC(NC(=O)OC(C)(C)C)C(=O)N1CCCC1C(=O)N2 (stereo not drawn) [Compound 2105] cannot be ordered by IC50: less than 10 µM for the first, less than 1 µM for the second.

CC(C)(C)OC(=O)N[C@H]1CCCCC/C=C\[C@@H]2C[C@@]2(C(=O)NS(=O)(=O)Nc2ccccc2Cl)NC(=O)[C@@H]2CCCN2C1=O [Compound 2233] and CC(C)(C)OC(=O)N[C@H]1CCCCC/C=C\[C@@H]2C[C@@]2(C(=O)NS(=O)(=O)Nc2cccc(Cl)c2)NC(=O)[C@@H]2CCCN2C1=O [Compound 2239] cannot be ordered by IC50: less than 1 µM for the first, less than 1 µM for the second.

CC1CCCC(C)N1S(=O)(=O)NC(=O)[C@@]12C[C@H]1/C=C\CCCCC[C@H](NC(=O)OC(C)(C)C)C(=O)N1CCC[C@H]1C(=O)N2 (stereo partly drawn) [Compound 2223] and COC[C@H]1CCCN1S(=O)(=O)NC(=O)[C@@]12C[C@H]1/C=C\CCCCC[C@H](NC(=O)OC(C)(C)C)C(=O)N1CCC[C@H]1C(=O)N2 [Compound 2251] cannot be ordered by IC50: less than 1 µM for the first, less than 0.1 µM for the second.

CC(C)(C)OC(=O)N[C@H]1CCCCC/C=C\[C@@H]2C[C@@]2(C(=O)NS(=O)(=O)N2CCOCC2)NC(=O)[C@@H]2CCCN2C1=O [Compound 2204] and CC(C)(C)OC(=O)N[C@H]1CCCCC/C=C\[C@@H]2C[C@@]2(C(=O)NS(=O)(=O)N2CCc3ccccc3C2)NC(=O)[C@@H]2CCCN2C1=O [Compound 408] cannot be ordered by IC50: less than 1 µM for the first, less than 10 µM for the second.

CC(C)(C)OC(=O)N[C@H]1CCCCC/C=C\[C@@H]2C[C@@]2(C(=O)NS(=O)(=O)NC2CCCCC2)NC(=O)[C@@H]2CCCN2C1=O [Compound 2205] and CC(C)(C)OC(=O)N[C@H]1CCCCC/C=C\[C@@H]2C[C@@]2(C(=O)NS(=O)(=O)NCc2ccccc2)NC(=O)[C@@H]2CCCN2C1=O [Compound 2232] cannot be ordered by IC50: less than 1 µM for the first, less than 10 µM for the second.

Compared with O=C(N[C@H]1CCCCCCC[C@@H]2C[C@@]2(C(=O)NS(=O)(=O)c2ccccc2)NC(=O)C2Cc3cc(Oc4cccc(Cl)c4)ccc3CN2C1=O)OC1CCCC1 (stereo partly drawn) [Compound 2010, Cyclopentyl (1aR,9S,19aR)-15-(3-chlorophenoxy)-10,18-dioxo-19a-(phenylsulfonylcarbamoyl)-1a,2,3,4,5,6,7,8,9,10,12,17,17a,18,19,19a-hexadecahydro-1H-2,5-diaza-bicyclo[13.1.0]hexadec-1(15)-eno[5,4-b]isoquinolin-9-ylcarbamate], O=C(N[C@H]1CCCCC/C=C\[C@@H]2C[C@@]2(C(=O)NS(=O)(=O)Nc2ccc(Cl)cc2)NC(=O)[C@@H]2CCCN2C1=O)OC1CCCC1 [Compound 420] is higher in IC50: less than 10 µM for the first, greater than 10 µM for the second.

First: CC(C)(C)OC(=O)N[C@H]1CCCCC/C=C\[C@@H]2C[C@@]2(C(=O)NS(=O)(=O)c2ccc3ccccc3c2)NC(=O)[C@@H]2CCCN2C1=O [Compound 2130]
Second: CC(C)(C)OC(=O)N[C@H]1CCCCC/C=C\[C@@H]2C[C@@]2(C(=O)NS(=O)(=O)NCCc2ccc3ccccc3c2)NC(=O)[C@@H]2CCCN2C1=O [Compound 421]
The IC50 of the first is lower: less than 10 µM for the first, greater than 10 µM for the second. The first is the more potent here.

CC(C)(C)OC(=O)N[C@H]1CCCCC/C=C\[C@@H]2C[C@@]2(C(=O)NS(=O)(=O)c2cccc(C(F)(F)F)c2)NC(=O)[C@@H]2CCCN2C1=O [Compound 2149] and COc1ccc(S(=O)(=O)NC(=O)[C@@]23C[C@H]2/C=C\CCCCC[C@H](NC(=O)OC(C)(C)C)C(=O)N2CCC[C@H]2C(=O)N3)cc1 [Compound 2133] cannot be ordered by IC50: less than 10 µM for the first, less than 10 µM for the second.

CC(=O)N[C@H]1CCCCC/C=C\[C@@H]2C[C@@]2(C(=O)NS(=O)(=O)C2CC2)NC(=O)[C@@H]2CCCN2C1=O [Compound 316] and O=C(N[C@H]1CCCCC/C=C\[C@@H]2C[C@@]2(C(=O)O)NC(=O)[C@@H]2CCCN2C1=O)C1CC1 [Compound 315] cannot be ordered by IC50: less than 10 µM for the first, less than 10 µM for the second.

O=C(N[C@H]1CCCCC/C=C\[C@@H]2C[C@@]2(C(=O)NS(=O)(=O)Nc2ccc(Cl)cc2)NC(=O)[C@@H]2CCCN2C1=O)C1CC1 [Compound 428] and COc1cccc(NS(=O)(=O)NC(=O)[C@@]23C[C@H]2/C=C\CCCCC[C@H](NC(=O)OC(C)(C)C)C(=O)N2CCC[C@H]2C(=O)N3)c1 [Compound 2240] cannot be ordered by IC50: less than 10 µM for the first, less than 1 µM for the second.

First: C[C@H](NC(=O)[C@@]12C[C@H]1/C=C\CCCCC[C@H](NC(=O)OC(C)(C)C)C(=O)N1CCC[C@H]1C(=O)N2)c1ccncc1 [Compound 501]
Second: CC(C)(C)OC(=O)N[C@H]1CCCCC/C=C\[C@@H]2C[C@@]2(C(=O)NS(=O)(=O)c2ccc(Cl)s2)NC(=O)[C@@H]2CCCN2C1=O [Compound 2132]
The IC50 of the first is higher: greater than 10 µM for the first, less than 10 µM for the second. The second is the more potent here.

N[C@H]1CCCCC/C=C\[C@@H]2C[C@@]2(C(=O)NS(=O)(=O)Nc2ccc(Cl)cc2)NC(=O)[C@@H]2C[C@@H](OC(=O)N3Cc4ccccc4C3)CN2C1=O [Compound 203] and CC(C)(C)OC(=O)N[C@H]1CCCCC/C=C\[C@@H]2C[C@@]2(C(=O)NS(=O)(=O)N2Cc3ccccc3C2)NC(=O)[C@@H]2CCCN2C1=O [Compound 409] cannot be ordered by IC50: less than 1 µM for the first, less than 10 µM for the second.

C[C@@H](NC(=O)O[C@@H]1C[C@H]2C(=O)N[C@]3(C(=O)O)C[C@H]3/C=C\CCCCC[C@H](NC(=O)OC(C)(C)C)C(=O)N2C1)c1ccc(F)cn1 [Compound 148] and C[C@H](NC(=O)O[C@@H]1C[C@H]2C(=O)N[C@]3(C(=O)O)C[C@H]3/C=C\CCCCC[C@H](NC(=O)OC(C)(C)C)C(=O)N2C1)c1ccc(F)cn1 [Compound 147] cannot be ordered by IC50: greater than 10 µM for the first, greater than 10 µM for the second.

Compared with Cc1noc(C)c1S(=O)(=O)NC(=O)[C@@]12C[C@H]1/C=C\CCCCC[C@H](NC(=O)OC(C)(C)C)C(=O)N1CCC[C@H]1C(=O)N2 [Compound 308], CC(C)(C)OC(=O)N[C@H]1CCCCC/C=C\[C@@H]2C[C@@]2(C(=O)NS(=O)(=O)c2c(Cl)cc(Cl)cc2Cl)NC(=O)[C@@H]2CCCN2C1=O [Compound 2115] is lower in IC50: greater than 10 µM for the first, less than 0.1 µM for the second.

CC(C)(C)OC(=O)N[C@H]1CCCCC/C=C\[C@@H]2C[C@@]2(C(=O)NS(=O)(=O)NCCc2ccccc2)NC(=O)[C@@H]2CCCN2C1=O [Compound 2228] and CC(C)C(C(C)C)S(=O)(=O)NC(=O)[C@@]12C[C@H]1/C=C\CCCCC[C@H](NC(=O)OC(C)(C)C)C(=O)N1CCC[C@H]1C(=O)N2 [Compound 2209] cannot be ordered by IC50: less than 10 µM for the first, less than 1 µM for the second.
